Experimental data taken from patent US20250228835A1, “PYRIDINYLOXYPYRIDINES AND RELATED COMPOUNDS AND THEIR USE IN TREATING MEDICAL CONDITIONS” (Rectify Pharmaceuticals, Inc., priority 2024, published 2025).

Biological target: T1, ABCD2 WT (Homo sapiens, UniProt Q9UBJ2)
T1 construct: expressed in transfected cells
T1 sequence (Q9UBJ2 1-740): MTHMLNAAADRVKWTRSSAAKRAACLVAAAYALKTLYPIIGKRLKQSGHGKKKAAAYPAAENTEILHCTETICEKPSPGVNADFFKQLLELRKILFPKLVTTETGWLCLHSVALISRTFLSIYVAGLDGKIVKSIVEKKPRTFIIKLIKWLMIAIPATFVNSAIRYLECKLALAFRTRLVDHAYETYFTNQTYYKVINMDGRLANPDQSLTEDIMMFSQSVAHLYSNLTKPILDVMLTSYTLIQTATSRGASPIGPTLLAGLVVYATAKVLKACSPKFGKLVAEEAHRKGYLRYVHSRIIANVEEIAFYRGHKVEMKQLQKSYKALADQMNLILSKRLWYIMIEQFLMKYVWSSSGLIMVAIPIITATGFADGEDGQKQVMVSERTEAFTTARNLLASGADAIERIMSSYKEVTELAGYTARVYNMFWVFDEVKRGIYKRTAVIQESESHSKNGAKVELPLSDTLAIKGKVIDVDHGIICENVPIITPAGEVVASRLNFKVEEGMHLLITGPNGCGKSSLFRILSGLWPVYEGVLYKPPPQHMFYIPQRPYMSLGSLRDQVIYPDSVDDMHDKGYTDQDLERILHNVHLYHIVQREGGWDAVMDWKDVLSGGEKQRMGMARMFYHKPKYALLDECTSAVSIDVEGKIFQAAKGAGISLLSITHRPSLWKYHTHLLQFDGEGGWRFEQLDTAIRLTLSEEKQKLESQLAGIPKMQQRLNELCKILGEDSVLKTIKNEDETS
Assay: D2 correction dose-response assay: ABCD2 WT HiBit protein expression
Assay type: cell-based
Settings: HEK-293/ABCD2 WT cells, 24 hours treatment, HiBit luminescence; class combines EC50 and Mean MaxAct (fold); read-out: ABCD2 WT EC50, Emax
Description: Exemplary compounds were evaluated in a D2 correction dose-response assay.
To assess activity against ABCD2, the compounds were screened in an assay measuring protein expression, using cells transfected with cDNA encoding HiBit-tagged ABCD2 wild-type. Here we describe an assay for measuring the expression of the wild type of human ABCD2 (henceforth referred to as ABCD2 WT) and the use of this assay to measure the efficacy of compounds to increase the expression of ABCD2 WT. The assay was designed to characterize the efficacy and potency of compounds to increase the expression of ABCD2 WT by calculating an Emax and EC50 value. HEK-293 cells stably expressing ABCD2 WT (HEK-293/ABCD2 WT) were used for this assay and were maintained at 37° C. (5% CO2, humidified) in Dulbecco's Modified Eagle Medium (DMEM, Gibco product #12100) supplemented with 10% fetal bovine serum (Biosera product #FB-1058/500), 1% PenStrep (HDB product #15140-122), and 0.5 mg/mL puromycin (Gibco product #A11138-03). For the assay, the HEK-293/ABCD2 WT cells were seeded in white/opaque 384-well plates (Corning product #3570) at 10,000 cells/well in 20 μl growth medium and allowed to settle for 4 hours at 37° C. (5% CO2, humidified). Compound serial dilutions are prepared in DMSO as three hundred times (333×) the final concentration and using a dilution factor of 3 using Bravo (Agilent). After the four-hour incubation period, 60 nL of DMSO solutions are transferred to the assay plate.
Dose response curves include eleven doses with the top final concentration at 30 μM in 0.3% DMSO. Liquid handling is performed with ECHO 550 Acoustic Liquid Handler (Labcyte). After addition of compound treatment, cells are incubated for 24 hours at 37° C. (5% CO2, humidified). After the 24-hour treatment, plates are allowed to equilibrate to room temperature for 10 minutes. Using Dragonfly Automated Liquid Handler (TTP LabTech), 20 μl of HiBit lytic assay reagent (Promega, product #N3040), which is prepared according to manufacturer's instructions, is added to each well. The plates are rotated at room temperature for 2 minutes and incubated for 1 hour at 25° C. before luminescent signal is acquired using an EnVision Multimode Plate Reader (PerkinElmer).

**Q.** For `Cc1cc(C(F)(F)F)nc(C2CC2)c1Oc1nc(-c2cncc(C#N)c2)ccc1S(=O)(=O)N1CCOCC1` [Compound I-290], which EC50 is on record?
**A.** The EC50 was over 25 µM.

**Q.** `Cc1cc(C(F)(F)F)nc(C2CC2)c1Oc1nc(-c2cncc(C#N)c2)ccc1S(=O)(=O)N(C)C` [Compound I-291] was tested. Which EC50 did it give?
**A.** Its EC50 is 1 to 10 µM.

**Q.** How did the EC50 turn out when `Cc1nc(C(F)(F)F)nc(C2CC2)c1Oc1nc(-c2cncc(C#N)c2)ccc1S(=O)(=O)NC1CC1` [Compound I-292] was run?
**A.** Its EC50 is 1 to 10 µM.

**Q.** With `CNS(=O)(=O)c1ccc(-c2cncc(C#N)c2)nc1Oc1c(C)cc(C(F)(F)F)nc1C1CC1` [Compound I-293] as the compound, how does the EC50 read?
**A.** The EC50 was 1 to 10 µM.

**Q.** How did the EC50 turn out when `Cc1cc(C(F)(F)F)nc(C2CC2)c1Oc1nc(-c2cncc(C#N)c2)ccc1S(=O)(=O)Nc1cccnc1` [Compound I-294] was run?
**A.** The EC50 was under 1 µM.

**Q.** For `Cc1cc(C(F)(F)F)nc(C2CC2)c1Oc1nc(-c2cccc(C#N)c2)ccc1S(=N)(=O)C1CC1` (stereo not drawn) [Compound I-295], which EC50 is on record?
**A.** The EC50 was 10 to 25 µM.

**Q.** With `Cc1cc(C(F)(F)F)nc(C2CC2)c1Oc1nc(-c2cncc(C#N)c2)ccc1S(=N)(=O)c1cccnn1` (stereo not drawn) [Compound I-296] as the compound, how does the EC50 read?
**A.** The EC50 was under 1 µM.

**Q.** `Cc1cc(C(F)(F)F)nc(C2CC2)c1Oc1nc(-c2cncc(C#N)c2)ccc1S(=N)(=O)c1cnccn1` (stereo not drawn) [Compound I-297] was tested. Which EC50 did it give?
**A.** The EC50 was 1 to 10 µM.

**Q.** How did the EC50 turn out when `CNS(=O)(=O)c1ccc(-c2cncc(C#N)c2)nc1Oc1c(C)cc(C2CC2)nc1C1CC1` [Compound I-298] was run?
**A.** Its EC50 is 1 to 10 µM.

**Q.** `Cc1sc(C2CC2)nc1Oc1nc(-c2cncc(C#N)c2)ccc1NS(C)(=O)=O` [Compound I-299] was tested. Which EC50 did it give?
**A.** Its EC50 is under 1 µM.

**Q.** With `Cc1nc(Oc2nc(-c3cncc(C#N)c3)ccc2NS(C)(=O)=O)c(C2CC2)s1` [Compound I-300] as the compound, how does the EC50 read?
**A.** Its EC50 is under 1 µM.

**Q.** Which EC50 does the source give for `Cc1cc(C(F)(F)F)nc(C2CC2)c1Oc1nc(-c2cncc(C#N)c2)ccc1S(=N)(=O)C1CCOCC1` (stereo not drawn) [Compound I-301] here?
**A.** The EC50 was 10 to 25 µM.

**Q.** How did the EC50 turn out when `Cc1cc(C(F)(F)F)nc(C2CC2)c1Oc1nc(-c2cncc(C#N)c2)ccc1S(=N)(=O)c1ccccn1` (stereo not drawn) [Compound I-302] was run?
**A.** The EC50 was 10 to 25 µM.

**Q.** For `Cc1nc(C(F)(F)F)nc(C2CC2)c1Oc1nc(-c2cncc(C#N)c2)ccc1S(=N)(=O)C1CC1` (stereo not drawn) [Compound I-303], which EC50 is on record?
**A.** The EC50 was over 25 µM.

**Q.** `Cc1cc(C(F)(F)F)nc(C2CC2)c1Oc1nc(-c2cncc(C#N)c2)ccc1S(=N)(=O)c1cccnc1` (stereo not drawn) [Compound I-304] was tested. Which EC50 did it give?
**A.** The EC50 was under 1 µM.

**Q.** For `Cc1cc(C(F)(F)F)nc(C2CC2)c1Oc1nc(-c2cncc(C#N)c2)ccc1S(=O)(=O)NC1COC1` [Compound I-305], which EC50 is on record?
**A.** The EC50 was 1 to 10 µM.

**Q.** `Cc1cc(C(F)(F)F)nc(C2CC2)c1Oc1nc(-c2cncc(C#N)c2)ccc1S(=O)(=O)NC1CCOCC1` [Compound I-306] was tested. Which EC50 did it give?
**A.** Its EC50 is 1 to 10 µM.

**Q.** How did the EC50 turn out when `Cc1cc(C)c(Oc2nc(-c3c[nH]c(=O)c(C#N)c3)ccc2NS(C)(=O)=O)c(C)n1` [Compound I-307] was run?
**A.** Its EC50 is 1 to 10 µM.

**Q.** How did the EC50 turn out when `CNS(=O)(=O)c1ccc(-c2cncc(C#N)c2)nc1Oc1nc(C2CC2)sc1C` [Compound I-308] was run?
**A.** Its EC50 is over 25 µM.

**Q.** Which EC50 does the source give for `Cc1nc(C(F)(F)F)nc(C2CC2)c1Oc1nc(-c2cncc(C#N)c2)ccc1S(=O)(=O)Nc1cnn(C)c1` [Compound I-309] here?
**A.** The EC50 was 1 to 10 µM.

**Q.** How did the EC50 turn out when `Cc1nc(C(F)(F)F)nc(C2CC2)c1Oc1nc(-c2cncc(C#N)c2)ccc1S(=O)(=O)Nc1cccnc1` [Compound I-310] was run?
**A.** The EC50 was 1 to 10 µM.

**Q.** Which EC50 does the source give for `Cc1cc(C)[n+]([O-])c(C)c1Oc1nc(-c2cncc(C#N)c2)ccc1NS(C)(=O)=O` [Compound I-311] here?
**A.** Its EC50 is 1 to 10 µM.

**Q.** How did the EC50 turn out when `CNS(=O)(=O)c1ccc(-c2cncc(C#N)c2)nc1Oc1nc(C)sc1C1CC1` [Compound I-312] was run?
**A.** The EC50 was over 25 µM.

**Q.** `CNS(=O)(=O)c1ccc(-c2cncc(C#N)c2)nc1Oc1c(C)nc(C(F)F)nc1C1CC1` [Compound I-313] was tested. Which EC50 did it give?
**A.** The EC50 was over 25 µM.

**Q.** Which EC50 does the source give for `Cc1nc(C(F)F)nc(C2CC2)c1Oc1nc(-c2cncc(C#N)c2)ccc1S(=O)(=O)NC1CC1` [Compound I-314] here?
**A.** Its EC50 is over 25 µM.

**Q.** For `CNS(=O)(=O)c1ccc(-c2cncc(C#N)c2)nc1Oc1c(C)nc(C(F)(F)F)nc1C1CC1` [Compound I-315], which EC50 is on record?
**A.** Its EC50 is 10 to 25 µM.

**Q.** How did the EC50 turn out when `Cc1cc(C)c(Oc2nc(-c3cccc(C#N)c3)ccc2S(=N)(=O)C2CC2)c(C)n1` (stereo not drawn) [Compound I-316] was run?
**A.** Its EC50 is 10 to 25 µM.
